Five compounds from patent publication US20170283862A1, “GENETIC TESTING FOR PREDICTING RESISTANCE OF KLEBSIELLA SPECIES AGAINST ANTIMICROBIAL AGENTS” (priority 2014, published 2017) can be followed below.

In this experiment the test system is K. pneumoniae isolates. The experiment can be described thus: Gene dosage effects: AUC of normalized median coverage per gene, resistant vs susceptible isolates. The note with it: best MIC break. Also noted: unit not given here. The procedure:
Since a potential reason for drug resistance is gene duplication, gene dose dependency was evaluated. For each sample the genomic coverage for each position was determined using BED Tools. Gene ranges were extracted from the reference assemblies NC_009648.gff and NC_016612.gff and the normalized median coverage per gene was calculated. To compare low- and high-resistance isolates the best area under the curve (AUC) value was computed.
To estimate the difference in coverage we calculated AUC values for the normalized median coverage per gene in the two groups.

Where [1] appears, read: gene KPN_00957: 1081235-1081342.
Where [2] appears, read: gene KPN_01607: 1784144-1785004.
[3] abbreviates: gene KPN_01784: 1966562-1967182.
[4] abbreviates: gene KPN_02272: 2484450-2485832.
[5] abbreviates: gene KPN_03336: 3652949-3653470.
The mark [6] stands for this setting: gene KPN_04541: 4973659-4974345.
The mark [7] stands for this setting: gene KPN_01776: 1957110-1958672.
The mark [8] stands for this setting: gene KPN_01790: 1972135-1973631.

In the case of `CC1(C)S[C@@H]2[C@H](NC(=O)[C@H](N)c3ccccc3)C(=O)N2[C@H]1C(=O)O` [Ampicillin], the BEST_BREAK came out at 128.1 under setting [1] and 128.1 under setting [2].
Amoxicillin/K Clavulanate: the BEST_BREAK is, setting by setting: under setting [1], 64; under setting [2], 8; under setting [3], 32; under setting [4], 64; under setting [5], 32; (gene KPN_04540: 4971080-4973572) 32. Besides, the BEST_BREAK reads like this: under setting [6], 32; (gene rmlC: 2715683-2716237) 64.1; (gene rmlC: 2723257-2723811) 64.1; (gene ygbI: 1783401-1784123) 8.
As for Ampicillin/Sulbactam, the BEST_BREAK reads like this: under setting [1], 32; under setting [2], 64.1; under setting [7], 64.1; under setting [3], 64.1; under setting [8], 64.1; under setting [6], 64.1. Besides, the BEST_BREAK is, setting by setting: (gene rmlC: 2723257-2723811) 64.1; (gene ygbI: 1783401-1784123) 64.1; (gene ygbJ: 1782199-1783101) 64.1; (gene ygbK: 1780922-1782187) 64.1.
With Gentamicin, the BEST_BREAK reads like this: (gene KPN_00596: 673027-673989) 2; under setting [1], 1; under setting [2], 1; under setting [7], 1; under setting [3], 1.
As for Piperacillin/Tazobactam, the BEST_BREAK reads like this: under setting [1], 8; under setting [2], 128; (gene KPN_01766: 1947966-1948751) 128; (gene KPN_01767: 1948966-1949805) 128; (gene KPN_01772: 1953630-1954052) 128; (gene KPN_01773: 1954090-1955208) 64. Also, the BEST_BREAK runs as follows: under setting [7], 128; under setting [3], 128; under setting [8], 128; under setting [4], 256.1; under setting [5], 256; under setting [6], 64. The BEST_BREAK runs as follows: (gene rmlC: 2723257-2723811) 256.1; (gene stbA: 300128-300664) 128; (gene ygbI: 1783401-1784123) 128; (gene ygbJ: 1782199-1783101) 128; (gene ygbK: 1780922-1782187) 128.
